Source: ChEMBL document CHEMBL5715954, “Silencing c-Myc translation as a therapeutic strategy through targeting PI3Kδ and CK1ε in hematological malignancies” (Blood, 2017)

Key:
Set-up in all cases: scale not given: the % may be the effect or the level left
[1] = biological target: T1, Ephrin type-A receptor 6 (Homo sapiens) (UniProt Q9UF33); test: Inhibition of human EPHA6 assessed as enzyme activity at 1 uM using poly[Glu:Tyr] (4:1) as substrate preincubated for 20 mins followed by [gamma-33P]-ATP addition and measured after 120 mins by radiometric Hot-SpotSM Kinase assay relative to control
T1 sequence (whole entry): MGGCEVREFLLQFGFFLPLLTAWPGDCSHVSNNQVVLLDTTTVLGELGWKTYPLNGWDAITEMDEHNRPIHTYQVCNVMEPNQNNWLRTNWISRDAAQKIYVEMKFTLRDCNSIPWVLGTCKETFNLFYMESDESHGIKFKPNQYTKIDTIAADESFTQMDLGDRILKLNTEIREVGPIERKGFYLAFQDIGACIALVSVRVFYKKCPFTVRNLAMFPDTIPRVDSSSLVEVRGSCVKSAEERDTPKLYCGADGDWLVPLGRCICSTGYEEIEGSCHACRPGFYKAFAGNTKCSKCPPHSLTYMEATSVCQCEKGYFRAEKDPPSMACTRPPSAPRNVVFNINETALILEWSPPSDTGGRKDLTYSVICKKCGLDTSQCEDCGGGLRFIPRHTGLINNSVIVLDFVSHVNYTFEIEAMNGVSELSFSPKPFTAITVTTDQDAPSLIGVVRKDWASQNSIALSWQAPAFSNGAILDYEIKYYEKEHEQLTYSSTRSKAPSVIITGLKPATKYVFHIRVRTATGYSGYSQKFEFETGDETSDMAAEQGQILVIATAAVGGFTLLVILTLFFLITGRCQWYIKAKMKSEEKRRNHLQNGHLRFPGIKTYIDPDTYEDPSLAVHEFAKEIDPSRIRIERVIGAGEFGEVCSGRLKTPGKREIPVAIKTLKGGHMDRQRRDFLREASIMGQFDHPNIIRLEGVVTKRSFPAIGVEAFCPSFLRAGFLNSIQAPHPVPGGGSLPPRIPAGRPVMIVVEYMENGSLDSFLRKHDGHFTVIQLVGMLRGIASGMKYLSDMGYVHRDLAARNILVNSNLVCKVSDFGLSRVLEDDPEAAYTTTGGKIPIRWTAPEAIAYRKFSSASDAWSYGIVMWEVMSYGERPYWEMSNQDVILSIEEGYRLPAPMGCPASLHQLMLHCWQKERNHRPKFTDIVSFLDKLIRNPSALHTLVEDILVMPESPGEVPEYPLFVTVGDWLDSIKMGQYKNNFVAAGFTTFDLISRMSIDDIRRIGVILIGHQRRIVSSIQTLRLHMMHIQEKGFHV

[2] = biological target: Interleukin-1 receptor-associated kinase 1 (Homo sapiens) (UniProt P51617); test: Inhibition of human IRAK1 assessed as enzyme activity at 1 uM using myelin basic protein as substrate preincubated for 20 mins followed by [gamma-33P]-ATP addition and measured after 120 mins by radiometric Hot-SpotSM Kinase assay relative to control
[3] = biological target: T2, Lymphokine-activated killer T-cell-originated protein kinase (Homo sapiens) (UniProt Q96KB5); test: Inhibition of human PBK assessed as enzyme activity at 1 uM using myelin basic protein as substrate preincubated for 20 mins followed by [gamma-33P]-ATP addition and measured after 120 mins by radiometric Hot-SpotSM Kinase assay relative to control
T2 sequence (whole entry): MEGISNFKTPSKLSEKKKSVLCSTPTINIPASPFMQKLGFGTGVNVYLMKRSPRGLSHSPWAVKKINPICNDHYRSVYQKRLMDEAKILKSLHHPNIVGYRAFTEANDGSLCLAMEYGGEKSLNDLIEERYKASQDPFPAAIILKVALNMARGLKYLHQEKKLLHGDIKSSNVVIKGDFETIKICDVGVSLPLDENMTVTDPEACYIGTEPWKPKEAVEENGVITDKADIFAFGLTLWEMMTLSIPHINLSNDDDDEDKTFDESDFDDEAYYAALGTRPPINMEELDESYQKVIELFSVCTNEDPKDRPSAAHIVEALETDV

[4] = biological target: Cyclin-Y/Cyclin-dependent kinase 16 (Homo sapiens) (UniProt Q00536+Q8ND76); test: Inhibition of human CDK16/cyclin Y assessed as enzyme activity at 1 uM using RB Protein as substrate preincubated for 20 mins followed by [gamma-33P]-ATP addition and measured after 120 mins by radiometric Hot-SpotSM Kinase assay relative to control; format: protein-complex assay
[5] = biological target: T3, Myotonin-protein kinase (Homo sapiens) (UniProt Q09013); test: Inhibition of human DMPK assessed as enzyme activity at 1 uM using KKRNRRLSVA as substrate preincubated for 20 mins followed by [gamma-33P]-ATP addition and measured after 120 mins by radiometric Hot-SpotSM Kinase assay relative to control
T3 sequence (whole entry): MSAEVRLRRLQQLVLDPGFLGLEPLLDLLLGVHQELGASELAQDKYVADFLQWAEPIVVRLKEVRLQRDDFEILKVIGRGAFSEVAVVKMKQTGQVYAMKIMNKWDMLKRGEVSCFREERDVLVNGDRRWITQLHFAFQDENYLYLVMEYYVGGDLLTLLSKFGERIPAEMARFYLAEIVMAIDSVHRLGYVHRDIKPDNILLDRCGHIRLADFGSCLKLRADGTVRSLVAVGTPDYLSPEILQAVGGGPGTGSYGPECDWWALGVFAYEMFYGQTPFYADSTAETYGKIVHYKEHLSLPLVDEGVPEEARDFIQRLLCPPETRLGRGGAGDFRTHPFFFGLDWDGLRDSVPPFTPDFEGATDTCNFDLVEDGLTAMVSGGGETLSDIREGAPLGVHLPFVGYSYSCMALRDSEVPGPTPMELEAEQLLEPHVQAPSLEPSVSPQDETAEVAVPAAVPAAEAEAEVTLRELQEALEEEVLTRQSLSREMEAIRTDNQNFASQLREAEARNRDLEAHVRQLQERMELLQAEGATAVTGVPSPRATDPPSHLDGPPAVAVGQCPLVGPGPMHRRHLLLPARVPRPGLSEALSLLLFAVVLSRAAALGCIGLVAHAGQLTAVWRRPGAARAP

[6] = biological target: T4, cAMP-dependent protein kinase catalytic subunit PRKX (Homo sapiens) (UniProt P51817); test: Inhibition of human PRKX assessed as enzyme activity at 1 uM using LRRASLG as substrate preincubated for 20 mins followed by [gamma-33P]-ATP addition and measured after 120 mins by radiometric Hot-SpotSM Kinase assay relative to control
T4 sequence (whole entry): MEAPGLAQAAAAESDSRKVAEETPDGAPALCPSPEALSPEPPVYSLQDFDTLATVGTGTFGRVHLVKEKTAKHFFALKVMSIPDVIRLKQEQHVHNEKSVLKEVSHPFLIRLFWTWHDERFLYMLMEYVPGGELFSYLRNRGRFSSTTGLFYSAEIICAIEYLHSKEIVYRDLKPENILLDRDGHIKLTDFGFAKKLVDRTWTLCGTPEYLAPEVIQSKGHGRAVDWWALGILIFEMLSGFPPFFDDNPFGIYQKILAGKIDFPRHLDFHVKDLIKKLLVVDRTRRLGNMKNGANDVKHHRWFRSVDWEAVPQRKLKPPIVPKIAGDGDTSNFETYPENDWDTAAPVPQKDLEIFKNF

Interleukin-1 receptor-associated kinase 1 (Homo sapiens), sequence (P51617 whole entry, looked up): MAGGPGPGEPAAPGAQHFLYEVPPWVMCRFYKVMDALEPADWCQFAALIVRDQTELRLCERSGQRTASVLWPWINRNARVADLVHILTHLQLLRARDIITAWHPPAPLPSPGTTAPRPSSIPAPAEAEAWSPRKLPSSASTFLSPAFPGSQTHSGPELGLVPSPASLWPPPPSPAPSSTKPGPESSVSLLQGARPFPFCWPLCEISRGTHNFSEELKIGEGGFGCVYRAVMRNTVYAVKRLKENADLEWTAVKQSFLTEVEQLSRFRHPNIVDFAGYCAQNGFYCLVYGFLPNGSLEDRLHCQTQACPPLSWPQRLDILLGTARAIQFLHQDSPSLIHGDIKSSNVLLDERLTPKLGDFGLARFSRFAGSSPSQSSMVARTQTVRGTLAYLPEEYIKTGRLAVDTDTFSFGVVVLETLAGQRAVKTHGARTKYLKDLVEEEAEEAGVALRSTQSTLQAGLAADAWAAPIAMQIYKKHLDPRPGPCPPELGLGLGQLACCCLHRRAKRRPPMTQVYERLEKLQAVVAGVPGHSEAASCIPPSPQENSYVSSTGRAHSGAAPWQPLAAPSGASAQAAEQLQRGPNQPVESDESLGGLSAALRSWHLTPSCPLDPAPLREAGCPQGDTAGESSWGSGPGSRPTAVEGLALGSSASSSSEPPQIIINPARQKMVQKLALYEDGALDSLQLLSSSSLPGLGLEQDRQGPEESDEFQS

For `CC[C@H](Nc1ncnc2[nH]cnc12)c1nc2cccc(F)c2c(=O)n1-c1ccccc1`, the Activity [1] was 87.7%, the Activity [2] was 106% and the Activity [3] was 105%. For the same compound, the Activity [4] was 96.5%, the Activity [5] was 104% and the Activity [6] was 97.6%.

With `C[C@H](Nc1ncnc2nc[nH]c12)c1cc2cccc(Cl)c2c(=O)n1-c1ccccc1` the Activity [1] was 86.9%, the Activity [2] was 102% and the Activity [3] was 102%. It also gave an Activity [4] of 97.7%, an Activity [5] of 106% and an Activity [6] of 98.6%.

With `CC(C)Oc1ccc(-c2nn([C@@H](C)c3oc4ccc(F)cc4c(=O)c3-c3cccc(F)c3)c3ncnc(N)c23)cc1F` [UMBRALISIB] the Activity [1] was 81.3%, the Activity [2] was 105% and the Activity [3] was 105%. The Activity [4] was 98.5%, the Activity [5] was 100% and the Activity [6] was 90.8%.
